Holding throughout (test): DTP human tumour cell line panel, 48 h
Test [1] has as its system A549 NSCLC.
Test [2] deals with CCRF-CEM leukemia.
In test [3] the test system is HL-60(TB) leukemia.
The test system of test [4] is HOP-62 NSCLC.
The subject of test [5] is HOP-92 NSCLC.
Test [6] relates to KM12 colon.
The subject of test [7] is M14 melanoma.
Test [8] has as its system MDA-MB-231 breast.
The subject of test [9] is MDA-N.
Test [10] concerns OVCAR-5 ovarian.
Test [11] concerns SF-295 CNS.
Test [12] concerns SK-MEL-28 melanoma.
For test [13], the system named is SNB-19 CNS.
The subject of test [14] is SW-620 colon.
The test system of test [15] is T-47D breast.
Test [16] relates to U251 CNS.
The subject of test [17] is UACC-62 melanoma.
Test [18] deals with UO-31 renal.
For test [19], the system named is HS 578T breast.
For test [20], the system named is SF-268 CNS.

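96-well plates; 48 h exposure; 5 concentrations. Endpoints by linear interpolation between flanking doses. Not reached: highest tested concentration assigned. TGI denotes the concentration required for complete inhibition of growth.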

With `C=CC[C@H]1O[Si](C(C)(C)C)(C(C)(C)C)[C@H](C)[C@H]1C`, the TGI in test [1], in test [2], in test [3], in test [4], in test [5] and in test [6] was above 100 µM each time. Also, the TGI in test [7], in [8], in [9], in test [10], in [11] and in test [12] was above 100 µM in each case. Besides, the concentration for total growth inhibition (TGI) in test [13], in test [14], in test [15], in [16], in [17] and in test [18] was above 100 µM throughout.
As to `CN(CC(=O)N1CC(CCl)c2ccc([N+](=O)[O-])cc21)CC(=O)N1CC(CCl)c2ccc([N+](=O)[O-])cc21` (centres undefined), the TGI in test [1], in test [2], in test [3], in test [4], in [5] and in test [19] was above 100 µM each time. For the same molecule, the TGI in test [6], in test [7], in test [8], in [9], in test [10] and in test [20] was above 100 µM in each case. The TGI in [11], in test [12], in [13], in [14], in test [16] and in test [17] was above 100 µM throughout. Further, the TGI (in general, the concentration at which net growth stops) in test [18] was above 100 µM.
Consider `CN(Cc1cnc2nc(N)nc(N)c2n1)c1ccc(C(=O)NCCS(=O)(=O)O)cc1`, for which the TGI in test [1], in [3], in [4], in [19], in test [6] and in [7] was above 100 µM in each case. For the same molecule, the TGI in test [8], in test [9], in [10], in test [20], in [11] and in [12] was above 100 µM in each case. The TGI in test [13], in test [14], in [15], in test [16], in test [17] and in test [18] was above 100 µM throughout.
Turning to `COc1cc2c(cc1OC)[C@@H]1[C@H](C#N)C(=O)C(C)(C)N1CC2`, the TGI in [1], in [2], in test [3], in test [5], in test [19] and in test [6] was above 100 µM each time. Moreover, the TGI in [7], in test [8], in test [9], in [10], in [11] and in test [12] was above 100 µM throughout. The TGI in [13], in test [14], in test [16], in test [17] and in [18] was above 100 µM each time.
For `CSC1=C(C#N)C(=S)N=C(N)C1C(=O)Nc1ccc(C)cc1` (centres undefined), the TGI in [1], in test [2], in test [3], in test [19], in test [6] and in test [7] was above 100 µM each time. Moreover, the TGI in [8], in [9], in test [10], in [20], in test [12] and in test [13] was above 100 µM each time. Also, the TGI in [14], in test [15], in [16], in [17] and in [18] was above 100 µM throughout.
On to `C1=CC2(C=CC13O[C@H](C1CCCCC1)[C@@H](C1CCCCC1)O3)O[C@H](C1CCCCC1)[C@@H](C1CCCCC1)O2`, for which the TGI in test [1], in test [3], in test [4], in test [19], in test [6] and in test [7] was above 50 µM in each case. Further, the TGI in test [8], in test [9], in [10], in test [20], in [11] and in test [12] was above 50 µM in each case. Besides, the TGI in [13], in [14], in [15], in test [16], in test [17] and in [18] was above 50 µM throughout.
Regarding `NC1CC(=O)c2cscc21` (centres undefined), the TGI is 41.7 µM in [1]; 38.2 µM in [2]; 33.3 µM in test [3]; above 100 µM in [4]; 49.6 µM in test [5]; 43.1 µM in test [6]. Also, the TGI in [7], in test [8], in test [9], in test [10], in [11] and in [12] was above 100 µM throughout. In addition, the TGI was above 100 µM in [13]; 37.4 µM in [14]; 40.3 µM in test [15]; above 100 µM in test [16]; 22.1 µM in test [18].
